According to ChEMBL document CHEMBL1201862, “PubChem BioAssay data set” (2004):
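Results reflect a 48-hour exposure of cells in 96-well plates to compound at five concentrations. GI50 is the concentration that inhibits growth by half.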 Calls of active or inactive are those of the source. Cut-off read from the data, not from the text of the source: active = GI50 up to about 1.1 µM and inactive = higher.

Experiments:
Experiment in all cases: DTP human tumour cell line panel, 48 h
[1] = system: 786-0
[2] = system: A498
[3] = system: A549
[4] = system: ACHN
[5] = system: BT-549
[6] = system: CAKI-1
[7] = system: CCRF-CEM
[8] = system: COLO 205
[9] = system: DU-145
[10] = system: EKVX
[11] = system: HCC 2998
[12] = system: HCT-116
[13] = system: HCT-15
[14] = system: HL-60
[15] = system: HOP-62
[16] = system: HOP-92
[17] = system: HT-29
[18] = system: Hs-578T
[19] = system: IGROV-1
[20] = system: K562
[21] = system: KM12
[22] = system: M14
[23] = system: MCF7
[24] = system: MDA-MB-231
[25] = system: MDA-MB-435
[26] = system: MDA-N
[27] = system: MOLT-4
[28] = system: Malme-3M
[29] = system: NCI-H226
[30] = system: NCI-H23
[31] = system: NCI-H460
[32] = system: NCI-H522
[33] = system: NCI/ADR-RES
[34] = system: OVCAR-3
[35] = system: OVCAR-4
[36] = system: OVCAR-5
[37] = system: OVCAR-8
[38] = system: PC-3
[39] = system: RPMI-8226
[40] = system: RXF 393
[41] = system: SF-268
[42] = system: SF-295
[43] = system: SF-539
[44] = system: SK-MEL-28
[45] = system: SK-MEL-2
[46] = system: SK-MEL-5
[47] = system: SK-OV-3
[48] = system: SN12C
[49] = system: SNB-19
[50] = system: SNB-75
[51] = system: SR
[52] = system: SW-620
[53] = system: T47D
[54] = system: TK-10
[55] = system: U-251
[56] = system: UACC-257
[57] = system: UACC-62
[58] = system: UO-31
[59] = system: LOX IMVI

With `CCCOc1ccc(/C=C/C2=[N+](CCO)CCO2)cc1` the GI50 [1] was > 100 µM (inactive), the GI50 [2] was > 100 µM (inactive) and the GI50 [3] was > 100 µM (inactive). The GI50 [4] was > 100 µM (inactive), the GI50 [5] was > 100 µM (inactive) and the GI50 [6] was > 100 µM (inactive). The GI50 [7] was > 100 µM (inactive), the GI50 [8] was > 100 µM (inactive) and the GI50 [9] was > 100 µM (inactive). The GI50 [10] was > 100 µM (inactive), the GI50 [11] was > 100 µM (inactive) and the GI50 [12] was > 100 µM (inactive). For the same compound, the GI50 [13] was greater than 100 µM, the GI50 [14] was > 100 µM (inactive) and the GI50 [15] was > 100 µM (inactive). The GI50 [16] was > 100 µM (inactive), the GI50 [17] was > 100 µM (inactive) and the GI50 [18] was > 100 µM (inactive). The GI50 [19] was > 100 µM (inactive), the GI50 [20] was > 100 µM (inactive) and the GI50 [21] was > 100 µM (inactive). The GI50 [22] was > 100 µM (inactive), the GI50 [23] was > 100 µM (inactive) and the GI50 [24] was > 100 µM (inactive). For the same compound, the GI50 [25] was > 100 µM (inactive), the GI50 [26] was > 100 µM (inactive) and the GI50 [27] was > 100 µM (inactive). The GI50 [28] was > 100 µM (inactive), the GI50 [29] was > 100 µM (inactive) and the GI50 [30] was > 100 µM (inactive). The GI50 [31] was > 100 µM (inactive), the GI50 [32] was > 100 µM (inactive) and the GI50 [33] was > 100 µM (inactive). For the same compound, the GI50 [34] was > 100 µM (inactive), the GI50 [35] was > 100 µM (inactive) and the GI50 [36] was > 100 µM (inactive). For the same compound, the GI50 [37] was > 100 µM (inactive), the GI50 [38] was > 100 µM (inactive) and the GI50 [39] was > 100 µM (inactive). The GI50 [40] was > 100 µM (inactive), the GI50 [41] was > 100 µM (inactive) and the GI50 [42] was > 100 µM (inactive). The GI50 [43] was > 100 µM (inactive), the GI50 [44] was > 100 µM (inactive) and the GI50 [45] was > 100 µM (inactive). For the same compound, the GI50 [46] was > 100 µM (inactive), the GI50 [47] was > 100 µM (inactive) and the GI50 [48] was > 100 µM (inactive). For the same compound, the GI50 [49] was > 100 µM (inactive), the GI50 [50] was > 100 µM (inactive) and the GI50 [51] was > 100 µM (inactive). The GI50 [52] was > 100 µM (inactive), the GI50 [53] was > 100 µM (inactive) and the GI50 [54] was > 100 µM (inactive). The GI50 [55] was > 100 µM (inactive), the GI50 [56] was > 100 µM (inactive) and the GI50 [57] was > 100 µM (inactive). For the same compound, the GI50 [58] was > 100 µM (inactive).
With `COP(=N[Si](C)(C)C)(OC)OC` the GI50 [1] was > 100 µM (inactive), the GI50 [2] was > 100 µM (inactive) and the GI50 [3] was > 100 µM (inactive). For the same compound, the GI50 [4] was > 100 µM (inactive), the GI50 [5] was > 100 µM (inactive) and the GI50 [6] was > 100 µM (inactive). For the same compound, the GI50 [7] was > 100 µM (inactive), the GI50 [8] was > 100 µM (inactive) and the GI50 [9] was > 100 µM (inactive). For the same compound, the GI50 [10] was > 100 µM (inactive), the GI50 [11] was > 100 µM (inactive) and the GI50 [12] was > 100 µM (inactive). For the same compound, the GI50 [13] was greater than 100 µM, the GI50 [14] was > 100 µM (inactive) and the GI50 [15] was > 100 µM (inactive). The GI50 [16] was > 100 µM (inactive), the GI50 [17] was > 100 µM (inactive) and the GI50 [18] was > 100 µM (inactive). The GI50 [19] was > 100 µM (inactive), the GI50 [20] was > 100 µM (inactive) and the GI50 [21] was > 100 µM (inactive). The GI50 [59] was > 100 µM (inactive), the GI50 [22] was > 100 µM (inactive) and the GI50 [23] was > 100 µM (inactive). For the same compound, the GI50 [24] was > 100 µM (inactive), the GI50 [25] was > 100 µM (inactive) and the GI50 [26] was > 100 µM (inactive). For the same compound, the GI50 [27] was > 100 µM (inactive), the GI50 [28] was > 100 µM (inactive) and the GI50 [29] was > 100 µM (inactive). The GI50 [30] was > 100 µM (inactive), the GI50 [31] was > 100 µM (inactive) and the GI50 [32] was > 100 µM (inactive). For the same compound, the GI50 [33] was > 100 µM (inactive), the GI50 [34] was > 100 µM (inactive) and the GI50 [35] was > 100 µM (inactive). The GI50 [36] was > 100 µM (inactive), the GI50 [37] was > 100 µM (inactive) and the GI50 [38] was > 100 µM (inactive). The GI50 [39] was > 100 µM (inactive), the GI50 [40] was > 100 µM (inactive) and the GI50 [41] was > 100 µM (inactive). For the same compound, the GI50 [43] was > 100 µM (inactive), the GI50 [44] was > 100 µM (inactive) and the GI50 [45] was > 100 µM (inactive). For the same compound, the GI50 [46] was > 100 µM (inactive), the GI50 [47] was > 100 µM (inactive) and the GI50 [48] was > 100 µM (inactive). For the same compound, the GI50 [49] was > 100 µM (inactive), the GI50 [50] was > 100 µM (inactive) and the GI50 [51] was > 100 µM (inactive). For the same compound, the GI50 [52] was > 100 µM (inactive), the GI50 [53] was > 100 µM (inactive) and the GI50 [54] was > 100 µM (inactive). For the same compound, the GI50 [55] was > 100 µM (inactive), the GI50 [56] was > 100 µM (inactive) and the GI50 [57] was > 100 µM (inactive). For the same compound, the GI50 [58] was > 100 µM (inactive).
